Among the test systems are RXF 393; OVCAR-8; NCI-H460; SW-620; SNB-75; SK-MEL-28; UACC-62; LOX IMVI; SNB-19; OVCAR-5; CAKI-1; SF-295; NCI-H23; UO-31; MOLT-4; COLO 205; A549; HCT-15; IGROV-1; Malme-3M.
Experiment in all cases: growth of human tumour cells (NCI), 48 h

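Values below derive from 48-hour exposures of cells grown in 96-well plates, with endpoints linearly interpolated between the two concentrations bracketing the appropriate inhibition level. GI50: concentration for 50% inhibition of growth.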 Calls of active or inactive are those of the source. No stated cut-off is given here; in the data, active = GI50 up to about 1.1 µM and inactive = higher.

With `CCCCCCCCCCCCCC(=O)OC1C(O)C(CO)OC(OC)C1NC(=O)N(CCCl)N=O` (stereo not given), the GI50 is 47 µM (inactive) with RXF 393; 43.6 µM (inactive) with OVCAR-8; 18.7 µM (inactive) with NCI-H460; > 100 µM (inactive) with SW-620; 38.6 µM (inactive) in the experiment with SNB-75; > 100 µM (inactive) in the experiment with SK-MEL-28. For the same molecule, the GI50 was 5.06 µM (inactive) in the experiment with UACC-62; 22.5 µM (inactive) in the experiment with LOX IMVI; 23.7 µM (inactive) in the experiment with SNB-19; > 100 µM (inactive) in the experiment with OVCAR-5; > 100 µM (inactive) with CAKI-1; 29 µM (inactive) with SF-295. For the same molecule, the GI50 in the experiment on NCI-H23 is 28.6 µM (inactive); with UO-31, > 100 µM (inactive); in the experiment on MOLT-4 it was 17.3 µM (inactive); in the experiment with COLO 205, > 100 µM (inactive); in the experiment with A549, 83.9 µM (inactive); with HCT-15 it was above 100 µM. The GI50 in the experiment on IGROV-1 and in the experiment with Malme-3M was > 100 µM (inactive) throughout.

`Cc1cc2c(cc1C)[n+]([O-])c(C#N)c(Cl)[n+]2[O-]`: the GI50 was 13.2 µM (inactive) with RXF 393; 15.3 µM (inactive) with OVCAR-8; 11.7 µM (inactive) with NCI-H460; 11.7 µM (inactive) in the experiment on SW-620; 1.88 µM (inactive) with SNB-75; 14.1 µM (inactive) in the experiment with SK-MEL-28. Also, the GI50 with UACC-62 is 11.7 µM (inactive); in the experiment on LOX IMVI it was 12.1 µM (inactive); in the experiment with SNB-19, 34.3 µM (inactive); with OVCAR-5, 12.7 µM (inactive); with CAKI-1 it was 6.46 µM (inactive); in the experiment on SF-295, 23.7 µM (inactive). Further, the GI50 is 11.7 µM (inactive) in the experiment with NCI-H23; 12 µM (inactive) with UO-31; 5.05 µM (inactive) with MOLT-4; 6.92 µM (inactive) in the experiment on COLO 205; 18.6 µM (inactive) in the experiment on A549; 4.35 µM with HCT-15. Further, the results for the GI50 in the experiment on IGROV-1 and with Malme-3M were 10.6 µM (inactive) and 12.9 µM (inactive), respectively.

As to `c1cncc(O[Si](Oc2cccnc2)(Oc2cccnc2)Oc2cccnc2)c1`, the GI50 in the experiment with RXF 393, in the experiment with OVCAR-8, in the experiment on NCI-H460, in the experiment with SW-620, with SNB-75 and in the experiment on SK-MEL-28 was > 100 µM (inactive) each time. Besides, the GI50 in the experiment on UACC-62, with LOX IMVI, in the experiment with SNB-19, in the experiment on OVCAR-5, in the experiment with CAKI-1 and in the experiment with SF-295 was > 100 µM (inactive) each time. Moreover, the GI50 in the experiment with NCI-H23 was > 100 µM (inactive); in the experiment on UO-31 it was > 100 µM (inactive); with MOLT-4, > 100 µM (inactive); in the experiment on COLO 205, > 100 µM (inactive); in the experiment with A549 it was > 100 µM (inactive); in the experiment with HCT-15, above 100 µM. In addition, the GI50 in the experiment with IGROV-1 and in the experiment on Malme-3M was > 100 µM (inactive) each time.

With `N#Cc1ccc(C2Oc3ccc(Cl)cc3C=C2[N+](=O)[O-])cc1` (stereo not given), the GI50 with RXF 393 is 4.99 µM (inactive); with OVCAR-8, > 10 µM (inactive); in the experiment on NCI-H460, 2.22 µM (inactive); in the experiment with SW-620, 0.845 µM (active); with SNB-75 it was 1.47 µM (inactive); in the experiment with SK-MEL-28 it was 1.82 µM (inactive). In addition, the GI50 with UACC-62 is 1.63 µM (inactive); in the experiment with LOX IMVI, 1.04 µM (active); in the experiment with SNB-19, 2.67 µM (inactive); in the experiment on OVCAR-5, 2.09 µM (inactive); with CAKI-1, 1.52 µM (inactive); in the experiment with SF-295 it was 2.87 µM (inactive). Also, the GI50 in the experiment on NCI-H23 is 1.48 µM (inactive); in the experiment with UO-31 it was 1.63 µM (inactive); in the experiment on MOLT-4, 0.906 µM (active); with COLO 205 it was 0.74 µM (active); in the experiment with A549, 1.85 µM (inactive); in the experiment with HCT-15 it was 1.07 µM. The GI50 in the experiment with IGROV-1 is 1.61 µM (inactive); in the experiment on Malme-3M it was 2.11 µM (inactive).

As for `N#C[C@H](OC1OC(COC2OC(CO)C(O)C(O)C2O)C(O)C(O)C1O)c1ccccc1` (stereo not given in full), the GI50 in the experiment with RXF 393, in the experiment with OVCAR-8, in the experiment on NCI-H460, in the experiment with SW-620, in the experiment with SNB-75 and in the experiment on SK-MEL-28 was > 250 µM (inactive) throughout. Further, the GI50 in the experiment with UACC-62 is 247 µM (inactive); in the experiment with LOX IMVI, > 195 µM (inactive); in the experiment on SNB-19, > 250 µM (inactive); in the experiment with OVCAR-5, > 250 µM (inactive); in the experiment on CAKI-1, > 250 µM (inactive); in the experiment on SF-295, 203 µM (inactive). Also, the GI50 in the experiment with NCI-H23 is > 250 µM (inactive); in the experiment on UO-31 it was > 250 µM (inactive); with MOLT-4, 158 µM (inactive); in the experiment on COLO 205 it was > 250 µM (inactive); with A549, > 250 µM (inactive); in the experiment with HCT-15 it was above 250 µM. In addition, the GI50 in the experiment with IGROV-1 and with Malme-3M was > 250 µM (inactive) throughout.

The record behind these values is ChEMBL document CHEMBL1201862, “PubChem BioAssay data set” (2004).
